Laboratory results as given in US6683095B2, “CDK inhibitors having 3-hydroxychromen-4-one structure” (LG Life Sciences Ltd., priority 2000, dated 2004).

Experiments:
CDK2/cyclin A = target: T1, CDK2/cyclin A (Homo sapiens, UniProt P24941); assay: Inhibitory activity against CDK2 (CDK2/cyclin A kinase assay, GST-Rb substrate, 32P-ATP); assay type: biochemical; conditions: 100 μM ATP, 30° C., 30 minutes
T1 construct: His; made in house; host or cells: insect cell (baculovirus co-infection)
Description: The inhibitory activity against CDK2 was measured by referring to Kitagawa, M. et al., Oncogene 9; 2549, 1994 and that against CDK4 was measured by referring to Carlson, B. A. et al., Cancer Research 56; 2473, 1996.
The part of amino acid positions 780 to 928 of C-terminus of human Rb protein was isolated, N-terminus thereof was labelled with GST protein, large amount thereof was expressed in bacteria and purified to be used as the substrate for the enzyme.
(§1) The activities of CDK2/cyclin A and CDK4/cyclin D1 were determined as follows. About 100 ng of enzyme was reacted in a total 100 μl of 20 mM Tris(pH 8.0), 100 mM NaCl, 10 mM MgCl2 buffer solution containing 20 μg of GST-Rb protein, 100 μM of ATP and 5 μCi of p^32-γ-ATP at 30° C. for 30 minutes. Then, EDTA was added to a concentration of 20 mM to stop the enzyme reaction. Subsequently, 30 μl of 50% glutathione bead (purchased from Pharmacia) was added to attach GST-Rb to the bead, which was washed three times with 20 mM Tris(pH 8.0), 100 mM NaCl, 10 mM EDTA solution, and then scintillation counting was carried out. To analyze the inhibitory activity of the compound, the inhibitor having a proper concentration was added to the enzyme reaction solution, and then the enzyme activity was measured according to the above method.
The inhibitory activity against CDK2 and CDK4 of the compound of formula (1) according to the present invention was represented as IC50 value (see the following Table 1).

Acute oral toxicity test = conditions: mouse, in vivo; oral administration, ICR male, observed 7 days, Litchfield-Wilcoxon method
Description: To determine the acute oral toxicities of the test compounds, solutions containing a compound in different concentrations from each other were administered orally to ICR male with a dose of 10 ml/kg body weight. After oral administration, lethality and symptoms for 7 days were observed, and LD50 (mg/kg) was calculated according to Litchfield-Wilcoxon method.

CDK4/cyclin D1 = target: T2, CDK4/cyclin D1 (Homo sapiens, UniProt P11802); assay: Inhibitory activity against CDK4 (CDK4/cyclin D1 kinase assay, GST-Rb substrate, 32P-ATP); assay type: biochemical; conditions: 100 μM ATP, 30° C., 30 minutes
T2 construct: GST; made in house; host or cells: insect cell
T2 sequence (P11802 whole entry): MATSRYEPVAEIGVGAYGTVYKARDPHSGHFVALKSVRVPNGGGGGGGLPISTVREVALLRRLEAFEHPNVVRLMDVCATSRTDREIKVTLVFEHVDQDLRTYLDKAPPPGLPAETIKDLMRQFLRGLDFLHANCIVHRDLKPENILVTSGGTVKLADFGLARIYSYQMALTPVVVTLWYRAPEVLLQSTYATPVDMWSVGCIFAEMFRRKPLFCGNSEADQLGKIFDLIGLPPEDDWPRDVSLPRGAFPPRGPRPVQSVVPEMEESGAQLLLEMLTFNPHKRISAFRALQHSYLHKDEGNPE
T2 sequence (P24385 whole entry partner): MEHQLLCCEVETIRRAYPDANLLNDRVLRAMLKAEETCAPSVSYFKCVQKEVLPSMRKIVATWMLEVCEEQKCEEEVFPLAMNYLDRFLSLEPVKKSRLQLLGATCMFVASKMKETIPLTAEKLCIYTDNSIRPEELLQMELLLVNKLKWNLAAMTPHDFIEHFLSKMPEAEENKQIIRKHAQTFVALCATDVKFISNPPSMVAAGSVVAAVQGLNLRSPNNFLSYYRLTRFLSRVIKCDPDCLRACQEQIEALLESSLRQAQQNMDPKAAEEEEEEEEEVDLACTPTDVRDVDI
Description: as §1

SMILES | IC50 (CDK2/cyclin A) [nM] | IC50 (CDK4/cyclin D1) [nM] | LD50 at 7 days (Acute oral toxicity test) [mg/kg]
Cc1cc(N2CCCS2(=O)=O)c2oc(-c3ccc(O)cc3)c(O)c(=O)c2c1 [Compound 15, 2-[3-hydroxy-2-(4-hydroxyphenyl)-6-methyl-4-oxo-4H-chromen-8-yl]-1λ^6-isothiazolidin-1,1-dione] | 250 | 550 | > 3000
Cc1cc(N2CCCS2(=O)=O)c2oc(-c3ccc(O)c(Cl)c3)c(O)c(=O)c2c1 [Compound 17, 2-[2-(3-chloro-4-hydroxyphenyl)-3-hydroxy-6-methyl-4-oxo-4H-chromen-8-yl]-1λ^6-isothiazolidin-1,1-dione] | 185 | 195 | > 3000
Nc1cc(N2CCCS2(=O)=O)c2oc(-c3ccc(O)c(Cl)c3)c(O)c(=O)c2c1 [Compound 35, 2-[6-amino-2-(3-chloro-4-hydroxyphenyl)-3-hydroxy-4-oxo-4H-chromen-8-yl]-1λ^6-isothiazolidin-1,1-dione] | 70 | 180 | –
CN(C)c1cc(N2CCCS2(=O)=O)c2oc(-c3ccc(O)c(Cl)c3)c(O)c(=O)c2c1 [Compound 36, 2-[2-(3-chloro-4-hydroxyphenyl)-6-(dimethylamino)-3-hydroxy-4-oxo-4H-chromen-8-yl]-1λ^6-isothiazolidin-1,1-dione] | 500 | 600 | > 3000
CNc1cc(N2CCCS2(=O)=O)c2oc(-c3ccc(O)c(Cl)c3)c(O)c(=O)c2c1 [Compound 37, 2-[2-(3-chloro-4-hydroxyphenyl)-6-(methylamino)-3-hydroxy-4-oxo-4H-chromen-8-yl]-1λ^6-isothiazolidin-1,1-dione] | 200 | 180 | > 3000
Cc1cc(C2CCN(C)CC2)c2oc(-c3ccc(O)c(Cl)c3)c(O)c(=O)c2c1 [Compound 38, 2-(3-chloro-4-hydroxyphenyl)-3-hydroxy-6-methyl-8-(1-methyl-4-piperidinyl)-4H-chromen-4-one] | 500 | 120 | > 3000
Cc1cc(-c2ccncc2)c2oc(-c3ccc(O)c(Cl)c3)c(O)c(=O)c2c1 [Compound 39, 2-(3-chloro-4-hydroxyphenyl)-3-hydroxy-6-methyl-8-(4-pyridinyl)-4H-chromen-4-one] | 130 | 280 | –
Cc1cc(-c2cc[n+](C)cc2)c2oc(-c3ccc(O)c(Cl)c3)c(O)c(=O)c2c1 [Compound 40, 4-[2-(3-chloro-4-hydroxyphenyl)-3-hydroxy-6-methyl-4-oxo-4H-chromen-8-yl]-1-methylpyridinium bromide] | 700 | 310 | > 3000

More lines, main results first:

IC50 (CDK2/cyclin A) [nM] | IC50 (CDK4/cyclin D1) [nM] | SMILES | LD50 at 7 days (Acute oral toxicity test) [mg/kg]
560 | 150 | Cc1cc(C2CCN(C)CC2)c2oc(-c3ccc(O)cc3)c(O)c(=O)c2c1 [Compound 41, 2-(4-hydroxyphenyl)-3-hydroxy-6-methyl-8-(1-methyl-4-piperidinyl)-4H-chromen-4-one] | –
178 | 650 | Cc1cc(C2CCN(C)CC2)c2oc(-c3ccc(O)c(C)c3)c(O)c(=O)c2c1 [Compound 42, 3-hydroxy-2-(4-hydroxy-3-methylphenyl)-6-methyl-8-(1-methyl-4-piperidinyl)-4H-chromen-4-one] | –
6300 | < 1000 | Cc1cc(C2CCN(C)CC2)c2oc(-c3ccc(O)c(C(F)(F)F)c3)c(O)c(=O)c2c1 [Compound 43, 3-hydroxy-2-(4-hydroxy-3-trifluoromethylphenyl)-6-methyl-8-(1-methyl-4-piperidinyl)-4H-chromen-4-one] | –
< 1000 | < 1000 | Cc1cc(C2CCN(CCO)CC2)c2oc(-c3ccc(O)c(Cl)c3)c(O)c(=O)c2c1 [Compound 44, 2-(3-chloro-4-hydroxyphenyl)-3-hydroxy-8-[1-(2-hydroxyethyl)-4-piperidinyl]-6-methyl-4H-chromen-4-one] | –
< 1000 | < 1000 | Cc1cc(C2CCN(CCN)CC2)c2oc(-c3ccc(O)c(Cl)c3)c(O)c(=O)c2c1 [Compound 45, 8-[1-(2-aminoethyl)-4-piperidinyl]-2-(3-chloro-4-hydroxyphenyl)-3-hydroxy-6-methyl-4H-chromen-4-one] | –
